Target: T1, full-length recombinant human NEK7 (Homo sapiens, UniProt Q8TDX7)
T1 construct: full-length recombinant human NEK7; GST (N); purchased SignalChem N09-10G; host or cells: Sf9 insect cells (baculovirus)
Assay: NEK7 enzymatic assay ([33P]-ATP, casein substrate)
Assay type: biochemical
Details: Table 2d; recombinant human NEK7, casein substrate
Outline: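 GST-tagged enzyme, baculovirus-expressed in Sf9 cells, was mixed with casein in 20 mM Hepes pH 7.5, 10 mM MgCl2, 1 mM EGTA, 0.02% Brij35, 2 mM DTT, 1% DMSO. Compounds (3-fold series, 10 μM–0.5 nM) were preincubated 20 min at RT, then [33P]-ATP was added for 2 h at RT. P81 filter-bound radioactivity was expressed as % of vehicle activity and fitted to IC50.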

T1 sequence (Q8TDX7 whole entry): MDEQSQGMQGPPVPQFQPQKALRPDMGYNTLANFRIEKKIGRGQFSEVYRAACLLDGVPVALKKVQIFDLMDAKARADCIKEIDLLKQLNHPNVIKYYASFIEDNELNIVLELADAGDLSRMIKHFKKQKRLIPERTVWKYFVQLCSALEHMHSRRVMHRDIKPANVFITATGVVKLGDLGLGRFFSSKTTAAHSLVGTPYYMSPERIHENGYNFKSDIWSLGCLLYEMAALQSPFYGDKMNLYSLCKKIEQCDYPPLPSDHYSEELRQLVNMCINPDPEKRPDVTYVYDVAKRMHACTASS

SMILES	IC50 [nM]
Nc1ncnc2c1c(-c1ccc(NC(=O)Nc3ccc(CN4CCOCC4)c(F)c3)c(F)c1)nn2C1CC1 [Id-47, 1-(4-(4-amino-1-cyclopropyl-1H-pyrazolo[3,4-d]pyrimidin-3-yl)-2-fluorophenyl)-3-(3-fluoro-4-(morpholinomethyl)phenyl)urea]	> 1500
CN1CCC(=Cc2ccc(NC(=O)Nc3ccc(-c4cn(C5CC5)c5ncnc(N)c45)cc3F)cc2C(F)(F)F)CC1 [Id-51, 1-(4-(4-amino-7-cyclopropyl-7H-pyrrolo[2,3-d]pyrimidin-5-yl)-2-fluorophenyl)-3-(4-((1-methylpiperidin-4-ylidene)methyl)-3-(trifluoromethyl)phenyl)urea]	501 to 1500
COc1cc(CN2CCN(C)CC2)ccc1NC(=O)Nc1ccc(-c2cn(C3CC3)c3ncnc(N)c23)cc1F [Id-52, 1-(4-(4-amino-7-cyclopropyl-7H-pyrrolo[2,3-d]pyrimidin-5-yl)-2-fluorophenyl)-3-(2-methoxy-4-((4-methylpiperazin-1-yl)methyl)phenyl)urea]	> 1500
CN1CCN(Cc2ccc(NC(=O)Nc3ccc(-c4cn(C5CC5)c5ncnc(N)c45)cc3F)cc2C#N)CC1 [Id-53, 1-(4-(4-amino-7-cyclopropyl-7H-pyrrolo[2,3-d]pyrimidin-5-yl)-2-fluorophenyl)-3-(3-cyano-4-((4-methylpiperazin-1-yl)methyl)phenyl)urea]	> 1500
Cc1cc(NC(=O)Nc2ccc(-c3nn(C4CC4)c4ccnc(N)c34)cc2F)ccc1N1CCOCC1 [Id-55, 1-(4-(4-amino-1-cyclopropyl-1H-pyrazolo[4,3-c]pyridin-3-yl)-2-fluorophenyl)-3-(3-methyl-4-morpholino-phenyl)urea]	> 1500
CN1CCN(Cc2ccc(NC(=O)Nc3ccc(-c4cn(C5CC5)c5ncnc(N)c45)cc3F)cc2)CC1 [Id-56]	> 1500
CCN1CCN(Cc2ccc(NC(=O)Nc3ccc(-c4cn(C5CC5)c5ncnc(N)c45)cc3F)cc2)CC1 [Id-57]	> 1500
CN1CCN(Cc2ccc(NC(=O)Nc3ccc(-c4cn(C5CC5)c5ncnc(N)c45)cc3F)cc2C(F)F)CC1 [Id-58]	> 1500
CCN1CCN(Cc2ccc(NC(=O)Nc3ccc(-c4cn(C5CC5)c5ncnc(N)c45)cc3F)cc2C(F)F)CC1 [Id-59]	> 1500

Second part, the compound after the results:

IC50 [nM]	SMILES
< 150	CN(C)C1CCN(Cc2ccc(NC(=O)Nc3ccc(-c4cn(C5CC5)c5ncnc(N)c45)cc3F)cc2C(F)(F)F)C1 (centres unmarked) [Id-44, 1-(4-(4-amino-7-cyclopropyl-7H-pyrrolo[2,3-d]pyrimidin-5-yl)-2-fluorophenyl)-3-(4-((3-(dimethylamino)pyrrolidin-1-yl)methyl)-3-(trifluoromethyl)phenyl)urea]
501 to 1500	Cc1cn(-c2ccc(NC(=O)Nc3ccc(-c4cn(C5CC5)c5ncnc(N)c45)cc3F)cc2C(F)(F)F)cn1 [Id-45, 1-(4-(4-amino-7-cyclopropyl-7H-pyrrolo[2,3-d]pyrimidin-5-yl)-2-fluorophenyl)-3-(4-(4-methyl-1H-imidazol-1-yl)-3-(trifluoromethyl)phenyl)urea]
< 150	CN1CCC(Oc2ccc(NC(=O)Nc3ccc(-c4cn(C5CC5)c5ncnc(N)c45)cc3F)cc2C(F)(F)F)CC1 [Id-46, 1-(4-(4-amino-7-cyclopropyl-7H-pyrrolo[2,3-d]pyrimidin-5-yl)-2-fluorophenyl)-3-(4-((1-methylpiperidin-4-yl)oxy)-3-(trifluoromethyl)phenyl)urea]
301 to 500	CN1CCN(Cc2ccc(NC(=O)Nc3ccc(-c4nn(C5CC5)c5ccnc(N)c45)cn3)cc2C(F)(F)F)CC1 [Id-50, 1-(5-(4-amino-1-cyclopropyl-1H-pyrazolo[4,3-c]pyridin-3-yl)pyridin-2-yl)-3-(4-((4-methylpiperazin-1-yl)methyl)-3-(trifluoromethyl)phenyl)urea]
< 150	CCN1CCN(Cc2ccc(NC(=O)Nc3ccc(-c4cn(C5CC5)c5ncnc(N)c45)cc3Cl)cc2C(F)(F)F)CC1 [Id-54, 1-(4-(4-amino-7-cyclopropyl-7H-pyrrolo[2,3-d]pyrimidin-5-yl)-2-chlorophenyl)-3-(4-((4-ethylpiperazin-1-yl)methyl)-3-(trifluoromethyl)phenyl)urea]

From patent US20230210853A1 (Halia Therapeutics, Inc., priority 2020, published 2023)
